The assay deals with Alternaria brassicae. The experiment in a line: In vivo test on Alternaria brassicae (radish plants, preventive spray). The conditions noted are these: radish plants (Pernot variety), contaminated 24 hours after treatment, grading 6 to 7 days after contamination vs control plants, read-out: protection (good (at least 50%) to total); for pest or weed control at 110 ppm: dose of 110 ppm; for pest or weed control at 330 ppm: dose of 330 ppm. Here is the method:
The active ingredient tested is prepared by potter homogenisation in a concentrated suspension type formulation at 100 g/l. This suspension is then diluted with water to obtain the desired active material concentration.
Radish plants (Pernot variety) in starter cups, sown on a 50/50 peat soil-pozzolana substrate and grown at 18-20° C., are treated at the cotyledon stage by spraying with the aqueous suspension described above.
Plants, used as controls, are treated with an aqueous solution not containing the active material.
After 24 hours, the plants are contaminated by spraying them with an aqueous suspension of Alternaria brassicae spores (40,000 spores per cm^3). The spores are collected from a 12-13-day-old culture.
The contaminated radish plants are incubated for 6-7 days at about 18° C., under a humid atmosphere.
Grading is carried out 6 to 7 days after the contamination, in comparison with the control plants.

`Cc1ccsc1CCNC(=O)c1ccccc1C(F)F` [Compound A-1]: the pest or weed control at 110 ppm was at least 50%.
Take `O=C(NCCc1sccc1Cl)c1ccccc1C(F)(F)F` [Compound A-5]: the pest or weed control at 330 ppm was at least 50%.
Regarding `O=C(NCCc1sccc1Cl)c1ccccc1Br` [Compound A-7], the pest or weed control at 330 ppm is at least 50%.
Still for that read-out and setting: for `Cc1csc(CCNC(=O)c2ccccc2C(F)(F)F)n1` [Compound B-1] the value was at least 50%.
As for `Cc1nc(CCNC(=O)c2ccccc2C(F)(F)F)sc1C` [Compound B-2], the pest or weed control at 110 ppm is at least 50%.
Take `Cc1nc(C)c(CCNC(=O)c2ccccc2Br)s1` [Compound C-2]: the pest or weed control at 330 ppm is at least 50%.
Turning to `Cn1cc(CCNC(=O)c2ccccc2C(F)(F)F)c(C(F)(F)F)n1` [Compound D-1], the pest or weed control at 330 ppm is at least 50%.
The same measure, in the same setting: the same measure for `Cn1cc(CCNC(=O)c2ccccc2Cl)c(C(F)(F)F)n1` [Compound D-4]: at least 50%; for `Cc1ccccc1C(=O)NCCc1cn(C)nc1C(F)(F)F` [Compound D-5]: at least 50%.
As for `COc1cc(C(F)(F)F)nn1CCNC(=O)c1ccccc1Br` [Compound E-1], the pest or weed control at 110 ppm is at least 50%.

Values taken from US7888289B2, “Heterocyclylethylbenzamide derivatives” (Bayer Cropscience AG, priority 2005, dated 2011).
